The results in this text go back to patent US12448394B2, “Heterocyclic pyrazole derivatives as type III receptor tyrosine kinase inhibitors” (DEVELOPMENT CENTER FOR BIOTECHNOLOGY, priority 2019, dated 2025).

A value given as a limit tells only on which side of the number the result lay.

Assay [1] concerns phosphorylation of FLT3 and its down-stream effector STAT5. In words: Western blotting of p-FLT3 and p-STAT5 in MV4-11 cells. Format: cell-based. Particulars: Homo sapiens; at 30 nM treatment, 3 hours, FLT3-ITD positive MV4-11 leukemia cells; read-out: inhibition activity against phosphorylation of FLT3 and its down-stream effector STAT5. In outline: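 MV4-11 cells held overnight in IMDM with 0.1% FBS, then 3 million cells treated with compound for 3 h. Whole lysates immunoblotted for p-FLT3 (Tyr-591), p-STAT5 (Tyr-694) and actin. Band intensities at 30 nM compared to DMSO control; % inhibition = (1 − relative intensity) × 100.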
(In western blotting, separated proteins are transferred to a membrane and probed.)

In assay [2] the test system is HCC827 NSCLC cell with EGFR exon 19 deletion mutation. In words: HCC827 cell proliferation assay (counter screen). Format: cell-based, human. Particulars: Homo sapiens, HCC827 cells, 72 hours treatment, CellTiter96, read-out: anti-proliferation activity HCC827 EGFR Exon19 del, IC50 ranking. In outline:
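HCC827 cells (EGFR exon 19 deletion) were seeded at 8000 cells/well in RPMI1640 with 10% FBS, then exposed to increasing compound concentrations for 72 h at 37 °C. Viability was read by CellTiter96 AQueous One (MTS), absorbance 490 nm after 2–4 h.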
(In general: The purpose of a counterscreen is to sort out artefacts and off-target activity.)

In assay [3] the test system is Molm-14 human acute myeloid leukemia cell with FLT3-ITD mutation. In words: Molm-14 cell proliferation assay (CellTiter 96). Type of assay: cell-based. The conditions noted are these: Homo sapiens; Molm-14 cells, 72 hours treatment, CellTiter96; read-out: anti-proliferation activity Molm-14 (FLT3-ITD), IC50 ranking. An outline of the steps: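 Molm-14 (FLT3-ITD AML) cells in RPMI 1640 with 10% heat-inactivated FBS were seeded at 25000 cells/well, incubated overnight at 37° C, 5% CO2, then treated with increasing compound concentrations for 72 hours. Viability was read as absorbance at 490 nm after 2˜4 hours with CellTiter96 AQueous One reagent.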

The test system of assay [4] is MV4-11 human acute myeloid leukemia cell with FLT3-ITD mutation. The assay is described as follows: MV4-11 cell proliferation assay (CellTiter 96). Format: cell-based. Particulars: Homo sapiens, MV4-11, 72 h, MV4-11 cells, 72 hours treatment, CellTiter96; read-out: anti-proliferation activity MV4-11 (FLT3-ITD), IC50 ranking. In outline: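 Cells seeded at 6500/well in IMDM with 10% heat-inactivated FBS, left overnight at 37 °C, 5% CO2, then exposed to increasing compound concentrations for 72 h. Viability read as absorbance at 490 nm after 2–4 h with CellTiter96 AQueous One reagent.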

Usually inhibition stands for the change of the read-out against control, counted positive when it falls. With `Cn1ncc2ccc(-c3n[nH]c4c3Cc3sc(-c5ccc(CN6CCOCC6)nc5)cc3-4)cc21` [Compound 10, 4-((5-(3-(1-methyl-1H-indazol-6-yl)-1,4-dihydro-thieno[2′,3′:4,5]cyclopenta [1,2-c]pyrazol-6-yl)pyridin-2-yl)methyl)morpholine], in assay [1], the inhibition at 0.03 µM is over 50%. Moreover, the figures for the IC50 in assay [2], in assay [3] and in assay [4] were over 10000 nM, under 30 nM and under 30 nM, respectively.
For `Cn1ncc2ccc(-c3n[nH]c4c3Cc3sc(-c5ccc(CN6CCCOCC6)cc5)cc3-4)cc21` [Compound 97, 4-(4-(3-(1-methyl-1H-indazol-6-yl)-1,4-dihydro-thieno[2′,3′:4,5]cyclopenta [1,2-c]pyrazol-6-yl)benzyl)-1,4-oxazepane], in assay [1], the inhibition at 0.03 µM is over 50%. Besides, the IC50 is over 10000 nM in assay [2], under 30 nM in assay [3] and under 30 nM in assay [4].
For `Cn1ncc2ccc(-c3n[nH]c4c3Cc3sc(-c5cccc(CN6CCOCC6)c5)cc3-4)cc21` [Compound 13, 4-(3-(3-(1-methyl-1H-indazol-6-yl)-1,4-dihydro-thieno[2′,3′:4,5]cyclopenta [1,2-c]pyrazol-6-yl)benzyl) morpholine], the inhibition at 0.03 µM in assay [1] is over 50%. For the same compound, the IC50 in assay [2] is over 10000 nM; in assay [3], 30 to 100 nM; in assay [4], 30 to 100 nM.
For the compound `Cn1ncc2ccc(-c3n[nH]c4c3Cc3sc(-c5cncc(C(=O)N6CCOCC6)c5)cc3-4)cc21` [Compound 31, (5-(3-(1-methyl-1H-indazol-6-yl)-1,4-dihydrothieno[2′,3′:4,5]cyclopenta[1,2-c]pyrazol-6-yl)pyridin-3-yl) (morpholino)methanone], the inhibition at 0.03 µM in assay [1] was over 50%. Further, the IC50 in assay [2] was 1000 to 10000 nM; in assay [3], under 30 nM; in assay [4], under 30 nM.
Consider `CC1C(=O)N(C)CCN1Cc1ccc(-c2cc3c(s2)Cc2c(-c4ccc5cnn(C)c5c4)n[nH]c2-3)cc1` (stereo not shown) [Compound 65, 1,3-dimethyl-4-(4-(3-(1-methyl-1H-indazol-6-yl)-1,4-dihydrothieno [2′,3′:4,5]cyclopenta [1,2-c]pyrazol-6-yl)benzyl)piperazin-2-one], for which, in assay [1], the inhibition at 0.03 µM is over 50%. Also, the IC50 in assay [2] is over 10000 nM; in assay [3], under 30 nM; in assay [4], under 30 nM.
On to `Cn1ncc2ccc(-c3n[nH]c4c3Cc3sc(-c5cc(C(=O)N6CCOCC6)ccn5)cc3-4)cc21` [Compound 56, (2-(3-(1-methyl-1H-indazol-6-yl)-1,4-dihydro-thieno[2′,3′:4,5]cyclopenta [1,2-c]pyrazol-6-yl)pyridin-4-yl)(morpholino) methanone], for which the inhibition at 0.03 µM in assay [1] was over 50%. Besides, the IC50 is over 10000 nM in assay [2], 30 to 100 nM in assay [3] and under 30 nM in assay [4].
The like results for `Cn1ncc2ccc(-c3n[nH]c4c3Cc3sc(-c5cnc(C(=O)N6CCOCC6)nc5)cc3-4)cc21` [Compound 41, (5-(3-(1-methyl-1H-indazol-6-yl)-1,4-dihydrothieno[2′,3′:4,5]cyclopenta[1,2-c]pyrazol-6-yl)pyrimidin-2-yl) (morpholino)methanone] were, in that order, over 50%, over 10000 nM, under 30 nM and under 30 nM.
For `Cn1ncc2ccc(-c3n[nH]c4c3Cc3sc(-c5cnc(N)nc5)cc3-4)cc21` [Compound 45, 5-(3-(1-methyl-1H-indazol-6-yl)-1,4-dihydrothieno [2′,3′:4,5]cyclopenta[l,2-c]pyrazol-6-yl)pyrimidin-2-amine] the same measures were over 50%, over 10000 nM, under 30 nM and under 30 nM.
Take `Cn1ncc2ccc(-c3n[nH]c4c3Cc3sc(-c5ccc(CCN6CCOCC6=O)cc5)cc3-4)cc21` [Compound 66, 4-(4-(3-(1-methyl-1H-indazol-6-yl)-1,4-dihydro-thieno[2′,3′:4,5]cyclopenta [1,2-c]pyrazol-6-yl)phenethyl)morpholin-3-one]: the inhibition at 0.03 µM in assay [1] was over 50%. Further, the values for the IC50 in assay [2], in assay [3] and in assay [4] were over 10000 nM, under 30 nM and under 30 nM, respectively.
`Cn1ncc2ccc(-c3n[nH]c4c3Cc3sc(C#CCN5CCOCC5)cc3-4)cc21` [Compound 71, 4-(3-(3-(1-methyl-1H-indazol-6-yl)-1,4-dihydro-thieno[2′,3′:4,5]cyclopenta [1,2-c]pyrazol-6-yl)prop-2-yn-1-yl)morpholine]: in assay [1], the inhibition at 0.03 µM was over 50%. Moreover, the IC50 in assay [2] is over 10000 nM; in assay [3], 30 to 100 nM; in assay [4], under 30 nM.
In the case of `Cn1ncc2ccc(-c3n[nH]c4c3Cc3sc(-c5ccc(CN6CCOCC6)cc5)cc3-4)cc21` [Compound 8, 4-(4-(3-(1-methyl-1H-indazol-6-yl)-1,4-dihydro-thieno[2′,3′:4,5]cyclopenta [1,2-c]pyrazol-6-yl)benzyl) morpholine], in assay [1], the inhibition at 0.03 µM is over 50%. Also, the IC50 is over 10000 nM in assay [2], 30 to 100 nM in assay [3] and under 30 nM in assay [4].
The like results for `Cn1ncc2ccc(-c3n[nH]c4c3Cc3sc(-c5ccc(CN6CCNC(=O)C6)cc5)cc3-4)cc21` [Compound 63, 4-(4-(3-(1-methyl-1H-indazol-6-yl)-1,4-dihydro-thieno[2′,3′:4,5]cyclopenta [1,2-c]pyrazol-6-yl)benzyl)piperazin-2-one] were, in that order, over 50%, over 10000 nM, under 30 nM and under 30 nM.
Take `Cn1ncc2ccc(-c3n[nH]c4c3Cc3sc(-c5ccc(CN6CCC(N7CCOCC7)CC6)cc5)cc3-4)cc21` [Compound 80, 4-(1-(4-(3-(1-methyl-1H-indazol-6-yl)-1,4-dihydro-thieno[2′,3′:4,5]cyclopenta [1,2-c]pyrazol-6-yl)benzyl)piperidin-4-yl) morpholine]: the inhibition at 0.03 µM in assay [1] was over 50%. In addition, the IC50 in assay [2] was over 10000 nM; in assay [3], under 30 nM; in assay [4], under 30 nM.
Turning to `Cn1ncc2ccc(-c3n[nH]c4c3Cc3sc(-c5ccc(C(=O)N6CCOCC6)cc5)cc3-4)cc21` [Compound 21, (4-(3-(1-methyl-1H-indazol-6-yl)-1,4-dihydro-thieno[2′,3′:4,5]cyclopenta [1,2-c]pyrazol-6-yl)phenyl) (morpholino)methanone], the inhibition at 0.03 µM in assay [1] is over 50%. The results for the IC50 in assay [2], in assay [3] and in assay [4] were over 10000 nM, under 30 nM and under 30 nM, respectively.
Consider `Cn1ncc2ccc(-c3n[nH]c4c3Cc3sc(-c5ccc(CN6CCOCC6=O)cc5)cc3-4)cc21` [Compound 59, 4-(4-(3-(1-methyl-1H-indazol-6-yl)-1,4-dihydro-thieno[2′,3′:4,5]cyclopenta [1,2-c]pyrazol-6-yl)benzyl)morpholin-3-one], for which the inhibition at 0.03 µM in assay [1] is over 50%. For the same compound, the results for the IC50 in assay [2], in assay [3] and in assay [4] were over 10000 nM, under 30 nM and under 30 nM, respectively.
In the case of `c1cc(-c2cc3c(s2)Cc2c(-c4ccc5cn[nH]c5c4)n[nH]c2-3)ccc1CN1CCOCC1` [Compound 6, 4-(4-(3-(1H-indazol-6-yl)-1,4-dihydrothieno[2′,3′:4,5]cyclopenta[1,2-c]pyrazol-6-yl)benzyl)morpholine], the inhibition at 0.03 µM in assay [1] is over 50%. For the same compound, the IC50 in assay [2] was over 10000 nM; in assay [3] it was under 30 nM; in assay [4] it was under 30 nM.
Turning to `Cn1ncc2ccc(-c3n[nH]c4c3Cc3sc(-c5ccc(CN6CCSCC6)cc5)cc3-4)cc21` [Compound 39, 3-(1-methyl-1H-indazol-6-yl)-6-(4-(thiomorpho-linomethyl)phenyl)-1,4-dihydrothieno[2′,3′:4,5] cyclopenta[1,2-c]pyrazole], the inhibition at 0.03 µM in assay [1] is over 50%. The values for the IC50 in assay [2], in assay [3] and in assay [4] were over 10000 nM, 30 to 100 nM and 30 to 100 nM, respectively.
As to `Cn1ncc2ccc(-c3n[nH]c4c3Cc3sc(N5CCOCC5=O)cc3-4)cc21` [Compound 79, 4-(3-(1-methyl-1H-indazol-6-yl)-1,4-dihydro-thieno[2′,3′:4,5]cyclopenta [1,2-c]pyrazol-6-yl) morpholin-3-one], the inhibition at 0.03 µM in assay [1] is over 50%. Also, the IC50 in assay [2] is 1000 to 10000 nM; in assay [3] it was under 30 nM; in assay [4], under 30 nM.
As to `Cn1ncc2ccc(-c3n[nH]c4c3Cc3sc(-c5csc(CN6CCOCC6)c5)cc3-4)cc21` [Compound 52, 4-((4-(3-(1-methyl-1H-indazol-6-yl)-1,4-dihydro-thieno[2′,3′:4,5]cyclopenta [1,2-c]pyrazol-6-yl)thiophen-2-yl)methyl) morpholine], the inhibition at 0.03 µM in assay [1] is over 50%. The IC50 in assay [2] is over 10000 nM; in assay [3], 30 to 100 nM; in assay [4] it was under 30 nM.
